This is an account of results in PubChem BioAssay AID1850 (Southern Research Specialized Biocontainment Screening …, 2009).

The assay concerns Salmonella Typhi PhoP-promoter GFP reporter, fluorescence, 4 h. As to the kind of experiment: PhoP regulon inhibitors, Salmonella typhi PhoP promoter GFP reporter, confirmatory (AID 1850).
In the case of `NC1=NC[C@H](c2ccccc2)N1CCCCC1CCCCC1`, the half-maximal inhibitory concentration (IC50) is 34.8 µM.

On to `C#CCOCCOCCOCCNc1nc(N2CCN(C(=O)[C@H]([C@@H](C)CC)n3cc([C@@H](N)Cc4ccc(O)cc4)nn3)CC2)nc(N2CCN(C(=O)[C@H](Cc3cc4ccccc4[nH]3)n3cc([C@@H](N)CC(C)C)nn3)CC2)n1`, for which the IC50 is 102 µM. Regarding `CCCCCOc1ccc(CSC2=NCCN2)cc1[N+](=O)[O-]`, the IC50 is 36.8 µM.

With `O=C(Nc1nnc(-c2cccs2)o1)c1cccc(F)c1`, the half-inhibitory concentration (IC50) was 34.1 µM.

As for `[O-][n+]1c2c(c3c4non(O)c4ccc31)CCCC2`, the IC50 was 74.7 µM. On to `COc1cc2c3cc1Oc1cc(ccc1O)C[C@@H]1c4c(cc(OC)c(O)c4Oc4ccc(cc4)C[C@H]3N(C)CC2)CCN1C`, for which the IC50 was 144 µM. Then `CCn1cc(C(=O)O)c(=O)c2cc(F)c(N3CCN(C)CC3)cc21`, with 0.43 µM; and `Oc1c(Br)cc(Br)cc1C=NCc1ccccc1`, with 86.6 µM. As for `CCOC(=O)C1=C(C(C)=O)C(c2cccnc2)C(C#N)=C(N)O1` (stereo unspecified), the figure is 91.5 µM; as for `CN1CCN(CC(=O)N2CCn3c4c(c5cc(C6CCCCC6)ccc53)CCCC42)CC1` (stereo unspecified), 32 µM; as for `c1ccc(Nc2nc(NCC3CCCO3)c3ccccc3n2)cc1` (stereo unspecified), 5 µM. Consider `Cc1ccc(OCC(=O)N/N=C/c2ccc([N+](=O)[O-])o2)cc1`, for which the IC50 is 21.9 µM. As for `COc1ccc(Nc2cc(C)c3c(O)cccc3n2)cc1`, the half-maximal inhibitory concentration (IC50) is 10.7 µM. With `O=C(Cn1cc[n+](CC(=O)c2ccc(Cl)cc2Cl)c1)c1ccc(Cl)cc1Cl`, the IC50 is 37.5 µM. Then `C(=N/Nc1nccs1)/c1cccnc1`, with 46.4 µM. For `O=C1c2ccccc2C2=Nc3ccccc3SC(c3ccccc3F)C12` (stereo unspecified), the half-maximal inhibitory concentration (IC50) is 3.8 µM. As for `Clc1cccc(CN2CCc3c([nH]c4ccccc34)C2)c1Cl`, the figure is 76.5 µM; as for `O=c1c2ccccc2nc(N/N=C/c2c(O)ccc3ccccc23)n1O`, 24.9 µM; as for `O=C(O)c1sccc1Oc1ccc(F)cc1[N+](=O)[O-]`, 88.7 µM. Consider `O=C(Nc1nc(-c2ccccn2)cs1)c1ccc(Br)s1`, for which the IC50 is 23.9 µM. In the case of `Oc1ccccc1C(Nc1nccs1)c1ccc2cccnc2c1O` (stereo unspecified), the IC50 was 20.7 µM. `COc1c(N2CCN(C(=S)NCc3ccccc3)C(C)C2)c(F)cc2c(=O)c(C(=O)O)cn(C3CC3)c12` (stereo unspecified): the IC50 is 36.1 µM.

For the compound `C#CCOCCOCCOCCNc1nc(N2CCN(C(=O)CCCCCCCCCCNC(=O)[C@H]([C@@H](C)CC)n3cc(CCCCCN)nn3)CC2)nc(N2CCN(C(=O)CCCCCCCCCCNC(=O)[C@H]([C@@H](C)CC)n3cc(CCCCN=C(N)N)nn3)CC2)n1`, the concentration for half-maximal inhibition (IC50) was 20.1 µM. With `Cc1ccc2nc(/C(C#N)=C\c3ccc([N+](=O)[O-])o3)[nH]c2c1`, the IC50 is 99.1 µM. As for `COc1ccc(CCN2CCC(Nc3nc4ccccc4n3Cc3ccc(F)cc3)CC2)cc1`, the figure is 37.7 µM; as for `O=C1OCCN1/N=C/c1ccc([N+](=O)[O-])o1`, 33.1 µM.

Broadly, the IC50 is the concentration needed to halve the response being measured.
